Test results taken from paper PMC4709569, “A Novel Naturally Occurring Class I 5-Enolpyruvylshikimate-3-Phosphate Synthase from Janibacter sp. Confers High Glyphosate Tolerance to Rice” (Scientific Reports, 2016).

Assays:
[1] = target: T1, aroAJ. sp (Janibacter sp. YB324, UniProt Z9JWC7BZZ5); assay: malachite green phosphate release, Lineweaver-Burk; assay type: biochemical; details: competitive with respect to PEP; PEP 0.067-0.5 mM, S3P 1 mM; glyphosate 0-5 mM; 50 mM Hepes pH 7.0, 28 °C, KCl present
T1 construct: pGEX-6p-1 BamHI/EcoRI, E. coli BL21(DE3); GST tag removed by 3C protease; HTCC2649
From the text: malachite green phosphate release, Lineweaver-Burk on aroAJ. sp

[2] = target: T1, aroAJ. sp; assay: malachite green phosphate release, dose-response fit; assay type: biochemical; details: 1 mM PEP, 1 mM S3P; glyphosate 0.0001-100 mM; 50 mM Hepes pH 7.0, 28 °C, KCl present
From the text: malachite green phosphate release, dose-response fit on aroAJ. sp

[3] = target: T2, aroAE. coli (Escherichia coli, UniProt P0A6D3); assay: malachite green phosphate release, Lineweaver-Burk; assay type: biochemical; details: read-out: Ki ^c
T2 construct: gene aroA; full length; pGEX-6p-1 BamHI/EcoRI, E. coli BL21(DE3); GST tag removed by 3C protease; similar size to aroAJ. sp (47 kDa on gel)
T2 sequence (P0A6D3 whole entry): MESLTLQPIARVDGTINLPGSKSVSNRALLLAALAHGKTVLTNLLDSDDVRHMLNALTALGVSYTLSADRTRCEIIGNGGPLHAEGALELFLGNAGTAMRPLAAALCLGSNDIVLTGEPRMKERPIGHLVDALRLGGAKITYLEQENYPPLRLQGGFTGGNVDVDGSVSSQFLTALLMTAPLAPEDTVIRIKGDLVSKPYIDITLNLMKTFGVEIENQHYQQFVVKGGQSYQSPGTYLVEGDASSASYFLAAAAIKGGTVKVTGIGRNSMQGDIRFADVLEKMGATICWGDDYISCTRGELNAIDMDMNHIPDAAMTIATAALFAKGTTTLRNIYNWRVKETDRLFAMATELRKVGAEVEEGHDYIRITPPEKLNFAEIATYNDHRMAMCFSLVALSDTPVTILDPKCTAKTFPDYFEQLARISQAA
From the text: malachite green phosphate release, Lineweaver-Burk on aroAE. coli

[4] = target: T2, aroAE. coli; assay: malachite green phosphate release, dose-response fit; assay type: biochemical
From the text: malachite green phosphate release, dose-response fit on aroAE. coli

[5] = tested on: C=C(OP(=O)(O)O)C(=O)O; assay: purified protein; details: PEP 0.05-1 mM, S3P fixed 1.0 mM, 50 mM Hepes pH 7.0, 28 °C
[6] = tested on: O=C(O)C1=C[C@@H](OP(=O)(O)O)[C@@H](O)[C@H](O)C1; assay: purified protein; details: S3P 0.05-1 mM, PEP fixed 1.0 mM, 50 mM Hepes pH 7.0, 28 °C

| Compound | Ki [1] [µM] | IC50 [2] [µM] | Ki [3] [µM] | IC50 [4] [µM] | Km [5] [µM] | Km [6] [µM] |
| --- | --- | --- | --- | --- | --- | --- |
| O=C(O)CNCP(=O)(O)O [glyphosate] | 373 ± 50 | 3600 ± 200 | 0.9 ± 0.09 | 40 ± 10 |  |  |
| aroAE. coli (Escherichia coli K-12) |  |  |  |  | 60 ± 7 | 115 ± 10 |
